Key:
Type in all cases: in vivo
[1] = tested on: barnyardgrass; experiment: Test Example 1: herbicidal effects in preemergence treatment under submerged conditions; conditions: dose 2.52 g/a
Procedure, shortened: (§1)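 Weed seeds and 2.5-leaf rice seedlings shared each flooded cup of alluvial soil. Dosing, expressed as g per are, was by pouring water-diluted emulsifiable concentrate onto the surface on sowing day. Mortality was graded 0 to 5 after three weeks' growth.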

[2] = tested on: bulrush; experiment: as above; conditions: dose 2.52 g/a
Procedure, shortened: as §1

[3] = tested on: ducksalad; experiment: as above; conditions: dose 2.52 g/a
Procedure, shortened: as §1

[4] = tested on: transplanted rice; experiment: Test Example 1: preemergence treatment under submerged conditions, effect on crop; conditions: dose 2.52 g/a
Procedure, shortened: as §1

[5] = tested on: barnyardgrass; experiment: Test Example 2: herbicidal effects during the vegetation period under submerged conditions; conditions: treatment during the vegetation period under submerged conditions; dose 2.52 g/a
Procedure, shortened: (§2)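 Barnyardgrass, bulrush and ducksalad were co-sown in alluvial soil flooded to 4 cm and grown in a greenhouse at 25 to 30° C. At the 1- or 2-leaf stage, water-diluted emulsifiable concentrates went onto the water surface at set doses (g/a). Herbicidal effect was scored three weeks later on a graded scale.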

[6] = tested on: bulrush; experiment: as above; conditions: treatment during the vegetation period under submerged conditions; dose 2.52 g/a
Procedure, shortened: as §2

[7] = tested on: ducksalad; experiment: as above; conditions: treatment during the vegetation period under submerged conditions; dose 2.52 g/a
Procedure, shortened: as §2

[8] = tested on: Italian ryegrass; experiment: Test Example 3: herbicidal effects in soil treatment; conditions: dose 3.2 g/a
Procedure, shortened: (§3)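 Seeds were sown in sterilized diluvial soil and covered with about 1.5 cm of soil. Compounds, formulated as emulsifiable concentrates and diluted with water, were sprayed evenly over the soil surface at set doses in g/a. Herbicidal effect was scored on a rating scale three weeks later.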

[9] = tested on: barnyardgrass; experiment: as above; conditions: dose 3.2 g/a
Procedure, shortened: as §3

[10] = tested on: beadstraw; experiment: as above; conditions: dose 3.2 g/a
Procedure, shortened: as §3

[11] = tested on: common chickweed; experiment: as above; conditions: dose 3.2 g/a
Procedure, shortened: as §3

[12] = tested on: common lambsquater; experiment: as above; conditions: dose 3.2 g/a
Procedure, shortened: as §3

[13] = tested on: common ragweed; experiment: as above; conditions: dose 3.2 g/a
Procedure, shortened: as §3

[14] = tested on: giant foxtail; experiment: as above; conditions: dose 3.2 g/a
Procedure, shortened: as §3

[15] = tested on: large crabgrass; experiment: as above; conditions: dose 3.2 g/a
Procedure, shortened: as §3

[16] = tested on: posumbu knotweed; experiment: as above; conditions: dose 3.2 g/a
Procedure, shortened: as §3

[17] = tested on: redroot pigweed; experiment: as above; conditions: dose 3.2 g/a
Procedure, shortened: as §3

[18] = tested on: velvetleaf; experiment: as above; conditions: dose 3.2 g/a
Procedure, shortened: as §3

[19] = tested on: water foxtail; experiment: as above; conditions: dose 3.2 g/a
Procedure, shortened: as §3

[20] = tested on: wild oat; experiment: as above; conditions: dose 3.2 g/a
Procedure, shortened: as §3

[21] = tested on: Italian ryegrass; experiment: Test Example 4: herbicidal effect in foliage treatment; conditions: dose 3.2 g/a
Procedure, shortened: (§4)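 Post-emergence foliar spray of water-diluted emulsifiable concentrate at predetermined doses (g per are), applied to plants 14 days after sowing in sterile diluvial soil (greenhouse, 25 to 30° C). Visual scale rating of effect taken 3 weeks later.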

[22] = tested on: barnyardgrass; experiment: as above; conditions: dose 3.2 g/a
Procedure, shortened: as §4

[23] = tested on: beadstraw; experiment: as above; conditions: dose 3.2 g/a
Procedure, shortened: as §4

[24] = tested on: common chickweed; experiment: as above; conditions: dose 3.2 g/a
Procedure, shortened: as §4

[25] = tested on: common lambsquater; experiment: as above; conditions: dose 3.2 g/a
Procedure, shortened: as §4

[26] = tested on: common ragweed; experiment: as above; conditions: dose 3.2 g/a
Procedure, shortened: as §4

[27] = tested on: giant foxtail; experiment: as above; conditions: dose 3.2 g/a
Procedure, shortened: as §4

[28] = tested on: large crabgrass; experiment: as above; conditions: dose 3.2 g/a
Procedure, shortened: as §4

[29] = tested on: posumbu knotweed; experiment: as above; conditions: dose 3.2 g/a
Procedure, shortened: as §4

[30] = tested on: redroot pigweed; experiment: as above; conditions: dose 3.2 g/a
Procedure, shortened: as §4

[31] = tested on: velvetleaf; experiment: as above; conditions: dose 3.2 g/a
Procedure, shortened: as §4

[32] = tested on: water foxtail; experiment: as above; conditions: dose 3.2 g/a
Procedure, shortened: as §4

[33] = tested on: wild oat; experiment: as above; conditions: dose 3.2 g/a
Procedure, shortened: as §4

[34] = three weeks after the application

SMILES: CC1(C)OCN(Cc2ccccc2NS(=O)(=O)C(F)(F)F)C(=O)C1F (stereo not drawn) [II-32]
- A: barnyardgrass, herbicidal effect (evaluation scale 0-5) [1]: 5 (mortality of 90% or above (nearly complete death))
- B: bulrush, herbicidal effect (evaluation scale 0-5) [2]: 5 (mortality of 90% or above (nearly complete death))
- C: ducksalad, herbicidal effect (evaluation scale 0-5) [3]: 5 (mortality of 90% or above (nearly complete death))
- a: transplanted rice, effect on crop (evaluation scale 0-5) [4]: 0 (mortality of less than 5% (almost ineffective))
- A: barnyardgrass, herbicidal effect (evaluation scale 0-5) [5]: 5 (mortality of 90% or above (nearly complete death))
- B: bulrush, herbicidal effect (evaluation scale 0-5) [6]: 5 (mortality of 90% or above (nearly complete death))
- C: ducksalad, herbicidal effect (evaluation scale 0-5) [7]: 5 (mortality of 90% or above (nearly complete death))
- H: Italian ryegrass, herbicidal effect (evaluation scale 0-5) [8]: 5 (mortality of 90% or above (nearly complete death))
- A: barnyardgrass, herbicidal effect (evaluation scale 0-5) [9]: 5 (mortality of 90% or above (nearly complete death))
- O: beadstraw, herbicidal effect (evaluation scale 0-5) [10]: 3 (mortality of at least 40% and less than 70%)
- N: common chickweed, herbicidal effect (evaluation scale 0-5) [11]: 3 (mortality of at least 40% and less than 70%)
- L: common lambsquater, herbicidal effect (evaluation scale 0-5) [12]: 0 (mortality of less than 5% (almost ineffective))
- J: common ragweed, herbicidal effect (evaluation scale 0-5) [13]: 5 (mortality of 90% or above (nearly complete death))
- E: giant foxtail, herbicidal effect (evaluation scale 0-5) [14]: 4 (mortality of at least 70% and less than 90%)
- D: large crabgrass, herbicidal effect (evaluation scale 0-5) [15]: 5 (mortality of 90% or above (nearly complete death))
- M: posumbu knotweed, herbicidal effect (evaluation scale 0-5) [16]: 4 (mortality of at least 70% and less than 90%)
- K: redroot pigweed, herbicidal effect (evaluation scale 0-5) [17]: 3 (mortality of at least 40% and less than 70%)
- I: velvetleaf, herbicidal effect (evaluation scale 0-5) [18]: 3 (mortality of at least 40% and less than 70%)
- G: water foxtail, herbicidal effect (evaluation scale 0-5) [19]: 5 (mortality of 90% or above (nearly complete death))
- F: wild oat, herbicidal effect (evaluation scale 0-5) [20]: 0 (mortality of less than 5% (almost ineffective))
- H: Italian ryegrass, herbicidal effect ([21]; three weeks after application): 4 (mortality of at least 70% and less than 90%)
- A: barnyardgrass, herbicidal effect ([22]; three weeks after application): 5 (mortality of 90% or above (nearly complete death))
- O: beadstraw, herbicidal effect ([23]; three weeks after application): 4 (mortality of at least 70% and less than 90%)
- N: common chickweed, herbicidal effect ([24]; three weeks after application): 3 (mortality of at least 40% and less than 70%)
- L: common lambsquater, herbicidal effect ([25]; three weeks after application): 2 (mortality of at least 20% and less than 40%)
- J: common ragweed, herbicidal effect ([26]; three weeks after application): 3 (mortality of at least 40% and less than 70%)
- E: giant foxtail, herbicidal effect ([27]; three weeks after application): 4 (mortality of at least 70% and less than 90%)
- D: large crabgrass, herbicidal effect ([28]; three weeks after application): 4 (mortality of at least 70% and less than 90%)
- M: posumbu knotweed, herbicidal effect ([29]; three weeks after application): 2 (mortality of at least 20% and less than 40%)
- K: redroot pigweed, herbicidal effect ([30]; three weeks after application): 1 (mortality of at least 5% and less than 20%)
- I: velvetleaf, herbicidal effect ([31]; three weeks after application): 4 (mortality of at least 70% and less than 90%)
- G: water foxtail, herbicidal effect ([32]; three weeks after application): 5 (mortality of 90% or above (nearly complete death))
- F: wild oat, herbicidal effect ([33]; three weeks after application): 2 (mortality of at least 20% and less than 40%)

SMILES: CC(C)COC(=O)N(c1ccccc1CN1OCCCC1=O)S(=O)(=O)C(F)(F)F [III-15]
- A: barnyardgrass, herbicidal effect (evaluation scale 0-5) [1]: 5 (mortality of 90% or above (nearly complete death))
- B: bulrush, herbicidal effect (evaluation scale 0-5) [2]: 5 (mortality of 90% or above (nearly complete death))
- C: ducksalad, herbicidal effect (evaluation scale 0-5) [3]: 5 (mortality of 90% or above (nearly complete death))
- a: transplanted rice, effect on crop (evaluation scale 0-5) [4]: 2 (mortality of at least 20% and less than 40%)
- A: barnyardgrass, herbicidal effect (evaluation scale 0-5) [5]: 5 (mortality of 90% or above (nearly complete death))
- B: bulrush, herbicidal effect (evaluation scale 0-5) [6]: 5 (mortality of 90% or above (nearly complete death))
- C: ducksalad, herbicidal effect (evaluation scale 0-5) [7]: 5 (mortality of 90% or above (nearly complete death))
- herbicidal effect, H: Italian ryegrass [8]: 3 (mortality of at least 40% and less than 70%)
- herbicidal effect, A: barnyardgrass [9]: 5 (mortality of 90% or above (nearly complete death))
- herbicidal effect, O: beadstraw [10]: 0 (mortality of less than 5% (almost ineffective))
- herbicidal effect, N: common chickweed [11]: 4 (mortality of at least 70% and less than 90%)
- herbicidal effect, L: common lambsquater [12]: 0 (mortality of less than 5% (almost ineffective))
- herbicidal effect, J: common ragweed [13]: 3 (mortality of at least 40% and less than 70%)
- herbicidal effect, E: giant foxtail [14]: 5 (mortality of 90% or above (nearly complete death))
- herbicidal effect, D: large crabgrass [15]: 5 (mortality of 90% or above (nearly complete death))
- herbicidal effect, M: posumbu knotweed [16]: 0 (mortality of less than 5% (almost ineffective))
- herbicidal effect, K: redroot pigweed [17]: 2 (mortality of at least 20% and less than 40%)
- herbicidal effect, I: velvetleaf [18]: 4 (mortality of at least 70% and less than 90%)
- herbicidal effect, G: water foxtail [19]: 5 (mortality of 90% or above (nearly complete death))
- herbicidal effect, F: wild oat [20]: 0 (mortality of less than 5% (almost ineffective))
- H: Italian ryegrass, herbicidal effect [21, 34]: 3 (mortality of at least 40% and less than 70%)
- A: barnyardgrass, herbicidal effect [22, 34]: 5 (mortality of 90% or above (nearly complete death))
- O: beadstraw, herbicidal effect [23, 34]: 3 (mortality of at least 40% and less than 70%)
- N: common chickweed, herbicidal effect [24, 34]: 3 (mortality of at least 40% and less than 70%)
- L: common lambsquater, herbicidal effect [25, 34]: 0 (mortality of less than 5% (almost ineffective))
- J: common ragweed, herbicidal effect [26, 34]: 4 (mortality of at least 70% and less than 90%)
- E: giant foxtail, herbicidal effect [27, 34]: 4 (mortality of at least 70% and less than 90%)
- D: large crabgrass, herbicidal effect [28, 34]: 5 (mortality of 90% or above (nearly complete death))
- M: posumbu knotweed, herbicidal effect [29, 34]: 0 (mortality of less than 5% (almost ineffective))
- K: redroot pigweed, herbicidal effect [30, 34]: 2 (mortality of at least 20% and less than 40%)
- I: velvetleaf, herbicidal effect [31, 34]: 4 (mortality of at least 70% and less than 90%)
- G: water foxtail, herbicidal effect [32, 34]: 5 (mortality of 90% or above (nearly complete death))
- F: wild oat, herbicidal effect [33, 34]: 0 (mortality of less than 5% (almost ineffective))

— US20120029187A1, “HALOALKYLSULFONANILIDE DERIVATIVE” (Nissan Chemical Industries, Ltd., priority 2009, published 2012)
